Values of other authors, collected in patent publication US20260199284A1, “SPECIFIC VASH COMPOUNDS (SVC) INHIBITORS FOR HEART DISEASES” (MT ACT, priority 2023, published 2026).

Test system: VASH
Conditions: cited from earlier work

## CCOC(=O)[C@H]1O[C@@H]1C(=O)N[C@@H](Cc1ccc(O)cc1)C(=O)O [Epo-Y, epoxide-Y]
  more potent VASH inhibitor than PTL: > 10 fold
